Experimental data taken from patent US5073540A, “Composite binding site drugs” (Receptron, priority 1989, dated 1991).
Where a SMILES comes first, the peptide text is derived from it.

What was measured:
[1] = Peptide depletion (degradation or adsorption) during the experimental period, by HPLC and 125I-label; type: physicochemical; details: HPLC and 125I-labeled peptide; concentrations above 0.1 μM
purified human IR = molecular target: T1, purified human IR (Homo sapiens, UniProt P06213); experiment: IR autophosphorylation (tyrosine kinase activity of purified insulin receptor); type: biochemical; details: for EC50: insulin-induced, 95% confidence intervals printed: K^k 2.2-7.2 μM, D^k 0.3-2.2 μM; for inhibition of basal activity of IR: no insulin added
T1 construct: from tissue; host or cells: human placenta
T1 sequence (P06213 28-758 limits assumed): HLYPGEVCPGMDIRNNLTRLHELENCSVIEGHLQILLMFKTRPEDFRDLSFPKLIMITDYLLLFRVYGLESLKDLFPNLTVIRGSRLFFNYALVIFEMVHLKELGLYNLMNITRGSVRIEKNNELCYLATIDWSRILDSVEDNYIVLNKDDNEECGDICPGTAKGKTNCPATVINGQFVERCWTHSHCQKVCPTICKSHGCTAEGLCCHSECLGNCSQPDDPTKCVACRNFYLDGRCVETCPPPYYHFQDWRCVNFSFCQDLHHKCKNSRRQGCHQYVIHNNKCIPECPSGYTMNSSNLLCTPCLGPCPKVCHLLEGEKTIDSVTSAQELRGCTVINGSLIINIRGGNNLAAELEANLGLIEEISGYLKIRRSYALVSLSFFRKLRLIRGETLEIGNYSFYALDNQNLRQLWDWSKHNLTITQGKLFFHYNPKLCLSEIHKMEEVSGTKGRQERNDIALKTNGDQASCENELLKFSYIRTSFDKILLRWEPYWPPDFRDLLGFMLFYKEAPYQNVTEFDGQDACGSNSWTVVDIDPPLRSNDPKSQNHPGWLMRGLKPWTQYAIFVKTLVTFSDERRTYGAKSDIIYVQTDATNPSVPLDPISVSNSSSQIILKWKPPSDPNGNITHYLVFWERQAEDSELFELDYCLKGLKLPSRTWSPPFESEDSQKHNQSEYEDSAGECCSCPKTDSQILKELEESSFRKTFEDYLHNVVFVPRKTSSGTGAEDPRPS
T1 sequence (P06213 763-1382 limits assumed): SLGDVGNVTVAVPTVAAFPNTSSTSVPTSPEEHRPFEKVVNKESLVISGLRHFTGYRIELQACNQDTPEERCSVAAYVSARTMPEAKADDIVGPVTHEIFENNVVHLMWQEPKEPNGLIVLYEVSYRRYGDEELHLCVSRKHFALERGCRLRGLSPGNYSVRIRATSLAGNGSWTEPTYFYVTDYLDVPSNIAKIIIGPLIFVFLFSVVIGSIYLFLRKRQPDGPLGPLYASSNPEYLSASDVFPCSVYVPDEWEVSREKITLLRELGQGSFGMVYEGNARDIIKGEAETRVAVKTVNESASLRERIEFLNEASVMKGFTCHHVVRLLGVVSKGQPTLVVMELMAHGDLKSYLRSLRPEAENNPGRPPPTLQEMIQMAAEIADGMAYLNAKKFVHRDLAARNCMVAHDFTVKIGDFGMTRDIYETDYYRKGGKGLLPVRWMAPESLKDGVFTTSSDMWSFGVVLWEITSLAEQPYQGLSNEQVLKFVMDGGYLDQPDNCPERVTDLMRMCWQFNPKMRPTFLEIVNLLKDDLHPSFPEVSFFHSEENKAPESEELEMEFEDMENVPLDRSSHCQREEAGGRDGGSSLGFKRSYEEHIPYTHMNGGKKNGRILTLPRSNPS
Procedure: When peptide was used, it was added in 5.0 μl, the volume adjusted to 20 μl by adding buffer, and the mixture incubated (1 hr, 4° C.). After incubation, 10 μl of a solution containing 2.5 μCi ^32 P-labeled ATP (3,000 Ci/mmol; γ-labeled; Amersham), 50 mM HEPES, pH 7.6, 150 mM NaCl, 0.1% Triton X-100, 37.5 μM unlabeled ATP, 15 mM MgCl2, and 6 MnCl2 was added to a final volume of 30 μl. The mixture was then incubated for 30 min. at 24° C.
After incubation, 15 μl sample buffer was added, and the sample was boiled for 5 min., and run on 10% SDS-PAGE overnight. The gel was dried, and autoradiograms processed with an exposure time of 5-10 hr. For quantitative estimates the β-subunit band of IR and the IRKD bands were cut out and counted dry (Cerenkov) in a scintillation counter.

Compound | depletion (degradation or adsorption) during the experimental period [1] | EC50 (purified human IR) | inhibition of basal activity of IR (purified human IR)
dynorphin A | No significant depletion |  | 
CC[C@H](C)[C@H](NC(=O)[C@H](CCC(N)=O)NC(=O)[C@@H](NC(=O)[C@H](CC(N)=O)NC(=O)[C@H](CCCNC(=N)N)NC(=O)[C@@H](N)CCC(=O)O)[C@@H](C)O)C(=O)N[C@@H](C)C(=O)N[C@@H](CCCCN)C(=O)NCC(=O)N[C@@H](CC(N)=O)C(=O)N[C@@H](CCC(=O)O)C(=O)N[C@@H](CCC(N)=O)C(=O)N[C@H](C(=O)N[C@@H](Cc1ccccc1)C(=O)N[C@@H](CCCNC(=N)N)C(=O)N[C@H](C(=O)N[C@@H](CC(N)=O)C(=O)N[C@@H](CC(C)C)C(=O)N[C@@H](CCCNC(=N)N)C(=O)N[C@H](C(=O)N[C@@H](C)C(=O)N[C@@H](CC(C)C)C(=O)N[C@@H](CCCNC(=N)N)C(=O)N[C@@H](Cc1ccc(O)cc1)C(=O)N[C@@H](Cc1ccc(O)cc1)C(=O)O)[C@@H](C)O)C(C)C)[C@@H](C)CC [K^k-(61-85)] (H-ERNTQIAKGNEQIFRVNLRTALRYY-OH) |  | 4000 nM | 24-40%
CC[C@H](C)[C@H](NC(=O)[C@H](CCC(N)=O)NC(=O)[C@@H](NC(=O)[C@H](CCC(=O)O)NC(=O)[C@H](CCCNC(=N)N)NC(=O)[C@@H](N)CCC(=O)O)[C@@H](C)O)C(=O)N[C@@H](C)C(=O)N[C@@H](CCCCN)C(=O)NCC(=O)N[C@@H](CC(N)=O)C(=O)N[C@@H](CCC(=O)O)C(=O)N[C@@H](CCC(N)=O)C(=O)N[C@@H](CO)C(=O)N[C@@H](Cc1ccccc1)C(=O)N[C@@H](CCCNC(=N)N)C(=O)N[C@H](C(=O)N[C@@H](CC(=O)O)C(=O)N[C@@H](CC(C)C)C(=O)N[C@@H](CCCNC(=N)N)C(=O)N[C@H](C(=O)N[C@@H](CC(C)C)C(=O)N[C@@H](CC(C)C)C(=O)N[C@@H](CCCNC(=N)N)C(=O)N[C@@H](Cc1ccc(O)cc1)C(=O)N[C@@H](Cc1ccc(O)cc1)C(=O)O)[C@@H](C)O)C(C)C [D^k-(61-85), ERETQIAKGNEQSFRVDLRTLLRYY] (H-ERETQIAKGNEQSFRVDLRTLLRYY-OH) |  | 1200 nM | 24-40%
